ChEMBL document CHEMBL5649166, “RIP3 induces apoptosis independent of pronecrotic kinase activity” (Mol Cell, 2014)

Columns and labels:
[1] = target: Mitogen-activated protein kinase 14 (Homo sapiens) (UniProt Q16539); assay: Inhibition of human P38a/MAPK14 using myelin basic protein as substrate at 1 uM in presence of 32P-ATP by Hotspot assay relative to control; values are per cent of control
[2] = target: Myosin light chain kinase, smooth muscle (Homo sapiens) (UniProt Q15746); assay: Inhibition of human MLCK/MYLK using KKLNRTLSFAEPG as substrate at 1 uM in presence of 32P-ATP by Hotspot assay relative to control; values are per cent of control
[3] = target: T1, Discoidin domain-containing receptor 2 (Homo sapiens) (UniProt Q16832); assay: Inhibition of human DDR2 using KKSRGDYMTMQIG as substrate at 1 uM in presence of 32P-ATP by Hotspot assay relative to control; values are per cent of control
T1 sequence (whole entry): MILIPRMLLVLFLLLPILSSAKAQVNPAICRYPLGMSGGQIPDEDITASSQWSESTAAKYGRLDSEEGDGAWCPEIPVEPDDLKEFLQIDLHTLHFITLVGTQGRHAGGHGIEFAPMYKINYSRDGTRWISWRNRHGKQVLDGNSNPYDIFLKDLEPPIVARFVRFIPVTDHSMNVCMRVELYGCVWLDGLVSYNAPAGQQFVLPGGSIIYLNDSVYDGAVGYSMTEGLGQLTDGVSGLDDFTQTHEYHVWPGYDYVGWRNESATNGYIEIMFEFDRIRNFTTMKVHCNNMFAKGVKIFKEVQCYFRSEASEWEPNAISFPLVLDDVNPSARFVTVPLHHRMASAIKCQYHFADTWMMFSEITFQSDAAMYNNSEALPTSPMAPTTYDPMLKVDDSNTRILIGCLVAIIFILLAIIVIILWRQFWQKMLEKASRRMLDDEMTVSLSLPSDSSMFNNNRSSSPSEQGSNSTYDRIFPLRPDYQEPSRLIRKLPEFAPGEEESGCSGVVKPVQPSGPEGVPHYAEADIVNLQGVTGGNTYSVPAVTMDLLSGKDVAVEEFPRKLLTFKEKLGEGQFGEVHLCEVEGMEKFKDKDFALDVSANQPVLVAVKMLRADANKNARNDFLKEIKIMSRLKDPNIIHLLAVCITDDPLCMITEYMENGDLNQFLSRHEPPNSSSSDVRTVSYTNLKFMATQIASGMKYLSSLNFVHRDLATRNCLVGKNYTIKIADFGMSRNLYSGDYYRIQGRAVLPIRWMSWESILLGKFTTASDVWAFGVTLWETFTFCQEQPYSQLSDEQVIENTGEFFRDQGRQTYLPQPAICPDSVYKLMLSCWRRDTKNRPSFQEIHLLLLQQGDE

[4] = target: Calcium/calmodulin-dependent protein kinase type 1 (Homo sapiens) (UniProt Q14012); assay: Inhibition of human CAMK1a using KKALRRQETVDAL as substrate at 1 uM in presence of 32P-ATP by Hotspot assay relative to control; values are per cent of control
[5] = target: T2, Phosphorylase b kinase gamma catalytic chain, liver/testis isoform (Homo sapiens) (UniProt P15735); assay: Inhibition of human PHKg2 using KKLNRTLSFAEPG as substrate at 1 uM in presence of 32P-ATP by Hotspot assay relative to control; values are per cent of control
T2 sequence (whole entry): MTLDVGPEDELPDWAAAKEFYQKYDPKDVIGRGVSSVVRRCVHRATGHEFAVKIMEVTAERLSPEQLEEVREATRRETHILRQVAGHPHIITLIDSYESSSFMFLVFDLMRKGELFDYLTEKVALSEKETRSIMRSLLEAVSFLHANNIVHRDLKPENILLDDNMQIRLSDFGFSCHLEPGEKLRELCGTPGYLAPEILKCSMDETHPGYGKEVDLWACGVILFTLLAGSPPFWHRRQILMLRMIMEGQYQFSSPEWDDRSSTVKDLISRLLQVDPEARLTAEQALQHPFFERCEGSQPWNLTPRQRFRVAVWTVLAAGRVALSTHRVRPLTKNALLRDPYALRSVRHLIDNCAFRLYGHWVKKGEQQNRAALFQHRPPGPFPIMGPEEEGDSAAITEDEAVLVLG

[6] = target: STE20-like serine/threonine-protein kinase (Homo sapiens) (UniProt Q9H2G2); assay: Residual activity of human SLK/STK2 using histone H3 as substrate at 1 uM in presence of 32P-ATP by Hotspot assay relative to control
[7] = target: T3, Tyrosine-protein kinase Mer (Homo sapiens) (UniProt Q12866); assay: Inhibition of human c-MER using poly[Glu:Tyr] (4:1) as substrate at 1 uM in presence of 32P-ATP by Hotspot assay relative to control; values are per cent of control
T3 sequence (whole entry): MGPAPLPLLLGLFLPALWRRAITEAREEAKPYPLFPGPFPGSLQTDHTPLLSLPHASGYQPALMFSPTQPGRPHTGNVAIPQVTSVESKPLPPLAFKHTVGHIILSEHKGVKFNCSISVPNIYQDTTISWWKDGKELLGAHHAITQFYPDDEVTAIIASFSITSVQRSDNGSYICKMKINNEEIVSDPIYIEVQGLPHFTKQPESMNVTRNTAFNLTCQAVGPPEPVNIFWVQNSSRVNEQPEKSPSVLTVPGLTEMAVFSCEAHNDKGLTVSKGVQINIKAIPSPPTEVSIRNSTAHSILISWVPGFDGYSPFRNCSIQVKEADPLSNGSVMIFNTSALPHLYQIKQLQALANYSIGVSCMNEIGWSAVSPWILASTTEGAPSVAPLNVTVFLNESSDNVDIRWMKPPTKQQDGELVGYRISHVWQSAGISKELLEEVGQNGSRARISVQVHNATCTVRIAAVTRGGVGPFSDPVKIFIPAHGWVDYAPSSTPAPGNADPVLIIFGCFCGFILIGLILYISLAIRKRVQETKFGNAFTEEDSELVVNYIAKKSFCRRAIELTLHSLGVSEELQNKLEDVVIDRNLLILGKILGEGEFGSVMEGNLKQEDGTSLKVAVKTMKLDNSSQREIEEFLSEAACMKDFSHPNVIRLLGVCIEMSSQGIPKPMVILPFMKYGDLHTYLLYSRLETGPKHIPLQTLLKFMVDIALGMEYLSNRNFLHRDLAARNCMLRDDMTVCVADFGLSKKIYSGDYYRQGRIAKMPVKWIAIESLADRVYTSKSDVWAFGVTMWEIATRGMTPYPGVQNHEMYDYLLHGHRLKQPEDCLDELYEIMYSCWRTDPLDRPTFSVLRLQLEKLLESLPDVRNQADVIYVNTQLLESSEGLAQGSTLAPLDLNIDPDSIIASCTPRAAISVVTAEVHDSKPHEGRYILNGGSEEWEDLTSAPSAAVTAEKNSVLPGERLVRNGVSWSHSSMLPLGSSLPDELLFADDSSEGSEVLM

Mitogen-activated protein kinase 14 (Homo sapiens), sequence (Q16539 whole entry): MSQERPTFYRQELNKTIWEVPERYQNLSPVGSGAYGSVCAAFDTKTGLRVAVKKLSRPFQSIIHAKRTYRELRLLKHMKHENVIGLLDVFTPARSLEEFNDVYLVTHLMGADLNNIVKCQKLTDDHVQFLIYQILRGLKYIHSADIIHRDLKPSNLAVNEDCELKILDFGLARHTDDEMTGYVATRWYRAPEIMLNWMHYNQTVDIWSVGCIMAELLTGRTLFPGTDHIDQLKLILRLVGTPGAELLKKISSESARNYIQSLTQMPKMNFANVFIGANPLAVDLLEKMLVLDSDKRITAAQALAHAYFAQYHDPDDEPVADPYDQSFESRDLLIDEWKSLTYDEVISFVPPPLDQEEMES
Calcium/calmodulin-dependent protein kinase type 1 (Homo sapiens), sequence (Q14012 whole entry, looked up, canonical isoform): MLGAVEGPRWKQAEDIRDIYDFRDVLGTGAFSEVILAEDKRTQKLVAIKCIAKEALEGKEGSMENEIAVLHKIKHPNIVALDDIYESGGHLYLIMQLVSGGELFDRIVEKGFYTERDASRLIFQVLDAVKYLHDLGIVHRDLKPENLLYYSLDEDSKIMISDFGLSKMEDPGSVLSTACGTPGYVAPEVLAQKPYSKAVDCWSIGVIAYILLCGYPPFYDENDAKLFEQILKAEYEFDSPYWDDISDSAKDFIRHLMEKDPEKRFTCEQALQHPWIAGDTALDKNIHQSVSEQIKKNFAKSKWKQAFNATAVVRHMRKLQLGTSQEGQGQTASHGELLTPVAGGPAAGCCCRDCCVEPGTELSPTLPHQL
Myosin light chain kinase, smooth muscle (Homo sapiens), sequence (Q15746 whole entry, the tested form may be a part): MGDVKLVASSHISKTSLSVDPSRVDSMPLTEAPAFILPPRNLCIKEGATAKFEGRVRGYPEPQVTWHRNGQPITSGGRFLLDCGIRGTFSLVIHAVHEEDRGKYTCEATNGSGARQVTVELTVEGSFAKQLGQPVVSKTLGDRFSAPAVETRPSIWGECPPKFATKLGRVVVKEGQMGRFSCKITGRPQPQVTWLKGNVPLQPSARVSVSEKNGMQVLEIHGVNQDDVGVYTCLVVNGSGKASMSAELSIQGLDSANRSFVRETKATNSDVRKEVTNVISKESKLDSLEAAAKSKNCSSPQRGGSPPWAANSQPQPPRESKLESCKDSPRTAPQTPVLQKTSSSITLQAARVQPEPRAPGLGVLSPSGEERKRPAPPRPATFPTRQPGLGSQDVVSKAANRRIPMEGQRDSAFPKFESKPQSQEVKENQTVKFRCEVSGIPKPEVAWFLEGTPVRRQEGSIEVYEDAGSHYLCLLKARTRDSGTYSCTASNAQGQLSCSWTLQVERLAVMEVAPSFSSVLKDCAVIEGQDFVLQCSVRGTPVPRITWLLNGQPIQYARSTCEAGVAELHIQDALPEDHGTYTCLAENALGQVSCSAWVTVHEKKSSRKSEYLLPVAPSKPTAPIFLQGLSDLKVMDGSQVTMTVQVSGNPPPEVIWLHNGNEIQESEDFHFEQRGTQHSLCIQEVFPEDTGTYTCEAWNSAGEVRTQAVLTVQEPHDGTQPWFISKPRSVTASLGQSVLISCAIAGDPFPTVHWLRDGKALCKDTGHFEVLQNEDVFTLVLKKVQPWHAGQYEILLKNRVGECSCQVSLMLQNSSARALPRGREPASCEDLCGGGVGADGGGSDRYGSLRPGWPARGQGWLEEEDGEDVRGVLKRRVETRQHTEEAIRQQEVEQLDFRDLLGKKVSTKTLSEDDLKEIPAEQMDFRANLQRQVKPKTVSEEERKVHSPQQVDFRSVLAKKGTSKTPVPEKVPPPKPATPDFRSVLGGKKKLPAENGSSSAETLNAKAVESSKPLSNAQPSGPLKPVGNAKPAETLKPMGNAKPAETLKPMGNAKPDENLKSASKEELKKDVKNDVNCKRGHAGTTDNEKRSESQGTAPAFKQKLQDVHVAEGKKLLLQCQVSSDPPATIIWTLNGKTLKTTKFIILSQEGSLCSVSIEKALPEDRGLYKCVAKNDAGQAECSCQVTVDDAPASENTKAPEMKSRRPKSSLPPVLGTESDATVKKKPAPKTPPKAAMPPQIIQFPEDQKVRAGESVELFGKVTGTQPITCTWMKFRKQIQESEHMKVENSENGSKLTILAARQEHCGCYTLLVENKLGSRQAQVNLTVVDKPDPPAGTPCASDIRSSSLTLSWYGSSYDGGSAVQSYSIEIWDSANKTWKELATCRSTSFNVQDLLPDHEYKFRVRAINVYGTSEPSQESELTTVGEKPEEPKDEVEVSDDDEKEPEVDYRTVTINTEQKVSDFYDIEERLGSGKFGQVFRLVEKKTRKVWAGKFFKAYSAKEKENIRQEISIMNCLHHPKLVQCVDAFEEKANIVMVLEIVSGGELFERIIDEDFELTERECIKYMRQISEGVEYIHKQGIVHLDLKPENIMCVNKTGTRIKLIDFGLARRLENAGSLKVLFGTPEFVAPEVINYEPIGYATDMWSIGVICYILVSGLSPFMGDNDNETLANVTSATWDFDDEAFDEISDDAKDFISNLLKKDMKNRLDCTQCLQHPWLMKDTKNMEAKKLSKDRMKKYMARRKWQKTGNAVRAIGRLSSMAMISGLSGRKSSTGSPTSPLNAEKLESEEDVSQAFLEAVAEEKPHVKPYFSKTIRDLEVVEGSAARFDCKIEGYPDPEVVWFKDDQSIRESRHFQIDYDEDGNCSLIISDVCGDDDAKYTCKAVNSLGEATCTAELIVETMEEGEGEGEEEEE
STE20-like serine/threonine-protein kinase (Homo sapiens), sequence (Q9H2G2 whole entry, looked up): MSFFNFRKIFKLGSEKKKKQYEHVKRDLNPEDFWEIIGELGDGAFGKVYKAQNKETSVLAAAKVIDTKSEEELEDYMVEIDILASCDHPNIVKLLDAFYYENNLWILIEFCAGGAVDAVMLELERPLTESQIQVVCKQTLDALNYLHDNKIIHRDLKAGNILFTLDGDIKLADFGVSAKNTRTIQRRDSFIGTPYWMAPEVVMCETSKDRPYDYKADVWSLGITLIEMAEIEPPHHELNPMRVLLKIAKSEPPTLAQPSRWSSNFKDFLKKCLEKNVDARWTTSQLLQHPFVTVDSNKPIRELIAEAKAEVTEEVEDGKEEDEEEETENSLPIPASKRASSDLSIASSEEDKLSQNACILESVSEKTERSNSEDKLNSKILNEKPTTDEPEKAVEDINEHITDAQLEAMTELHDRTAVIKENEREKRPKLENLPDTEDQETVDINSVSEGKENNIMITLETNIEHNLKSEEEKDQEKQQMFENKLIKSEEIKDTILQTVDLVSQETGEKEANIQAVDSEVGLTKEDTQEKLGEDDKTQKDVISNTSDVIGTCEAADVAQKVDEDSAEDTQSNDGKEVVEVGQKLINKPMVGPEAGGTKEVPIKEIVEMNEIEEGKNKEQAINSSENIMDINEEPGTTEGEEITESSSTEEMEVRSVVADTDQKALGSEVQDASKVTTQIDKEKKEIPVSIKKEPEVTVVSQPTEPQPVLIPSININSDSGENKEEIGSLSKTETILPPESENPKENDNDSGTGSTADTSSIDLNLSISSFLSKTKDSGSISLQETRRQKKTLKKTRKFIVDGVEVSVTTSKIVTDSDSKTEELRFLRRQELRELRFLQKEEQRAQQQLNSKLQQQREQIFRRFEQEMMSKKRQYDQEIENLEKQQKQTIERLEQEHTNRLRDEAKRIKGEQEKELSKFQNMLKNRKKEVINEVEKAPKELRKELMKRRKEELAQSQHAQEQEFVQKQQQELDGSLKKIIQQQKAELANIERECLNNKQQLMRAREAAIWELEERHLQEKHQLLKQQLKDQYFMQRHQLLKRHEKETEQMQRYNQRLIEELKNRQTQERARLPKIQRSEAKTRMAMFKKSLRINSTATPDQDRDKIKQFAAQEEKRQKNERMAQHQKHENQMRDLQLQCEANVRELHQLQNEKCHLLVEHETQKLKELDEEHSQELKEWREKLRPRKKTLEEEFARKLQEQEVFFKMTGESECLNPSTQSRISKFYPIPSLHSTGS

CNC(=O)c1ccc2c(c1)ncn2-c1ccc(CC(=O)OC(C)(C)C)cc1
residual activity [1]: 95.8%
residual activity [2]: 97.7%
residual activity [3]: 98.7%
residual activity [4]: 95%
residual activity [5]: 100%
residual activity [6]: 92.1%
residual activity [7]: 102%

Cc1cc(-c2cnc(N)c3c(-c4ccc5scnc5c4)csc23)n(C)n1
residual activity [1]: 40.9%
residual activity [2]: 95.3%
residual activity [3]: 88.8%
residual activity [4]: 97.4%
residual activity [5]: 95.4%
residual activity [6]: 94.6%
residual activity [7]: 89.1%

CC(C)S(=O)(=O)c1ccc2nccc(Nc3ccc4scnc4c3)c2c1
residual activity [1]: 91.5%
residual activity [2]: 97.9%
residual activity [3]: 102%
residual activity [4]: 92.1%
residual activity [5]: 98.2%
residual activity [6]: 87.8%
residual activity [7]: 93.8%
